Experimental findings from patent US6316450A, “Compounds” (SmithKline Beecham p.l.c., priority 1997, dated 2001) are described below.

In the experiment the target is human cloned 5-HT6 receptors (Homo sapiens, UniProt P50406). The experiment is described as follows: biochemical. The class given is binding. On the set-up: selectivity: reference not given here.
Setting [1] is: [3H]-LSD, HeLa-5HT6 cell membranes, pH 7.7, 37° C., read-out: pKi (converted).
Setting [2] is: selective 5-HT6 receptor antagonist activity.

Molecules are shown by their SMILES. Counter-ions that a name gives are not always drawn. Like-named read-outs stand apart in the source and are kept apart here.

Chain of human cloned 5-HT6 receptors (P50406 whole entry): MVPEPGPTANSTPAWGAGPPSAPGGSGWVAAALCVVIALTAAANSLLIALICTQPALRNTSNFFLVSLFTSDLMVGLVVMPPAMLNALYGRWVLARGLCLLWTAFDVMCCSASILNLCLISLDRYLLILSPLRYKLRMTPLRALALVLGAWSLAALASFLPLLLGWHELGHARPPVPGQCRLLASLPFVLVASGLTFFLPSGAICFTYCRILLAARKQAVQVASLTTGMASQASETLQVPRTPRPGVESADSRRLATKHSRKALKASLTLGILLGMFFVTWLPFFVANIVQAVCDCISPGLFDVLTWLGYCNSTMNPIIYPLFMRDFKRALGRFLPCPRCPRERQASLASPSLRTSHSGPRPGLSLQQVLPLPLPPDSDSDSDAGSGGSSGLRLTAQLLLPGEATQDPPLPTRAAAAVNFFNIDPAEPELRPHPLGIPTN

`COc1ccc(S(=O)(=O)Nc2cccc(Br)c2)cc1N1CCN(C)CC1.Cl` [Compound 3, N-(3-Bromophenyl)-4-methoxy-3-(4-methylpiperazin-1-yl)benzene sulfonamide hydrochloride]: the Ki under setting [1] is less than 3.16 nM. The same compound displayed a selectivity under setting [2] of more than 100.

Regarding `COc1ccc(S(=O)(=O)N2CCCc3ccc(C(F)(F)F)cc32)cc1N1CCN(C)CC1` [Compound 8, 1-[4-Methoxy-3-(4-methylpiperazin-1-yl)-benzenesulfonyl]-7-trifluoromethyl-1,2,3,4-tetrahydroquinoline], the Ki under setting [1] was less than 3.16 nM. The compound further yielded a selectivity under setting [2] of more than 100.

Turning to `COc1ccc(S(=O)(=O)N2CCc3c(OC)ccc(OC)c3C2)cc1N1CCN(C)CC1.Cl` [Compound 21, 5,8-Dimethoxy-2-[4-methoxy-3-(4-methylpiperazin-1-yl)-benzenesulfonyl]-1,2,3,4-tetrahydroisoquinoline hydrochloride], the Ki under setting [1] is less than 3.16 nM. Under setting [2], this compound returned a selectivity of more than 100.

Consider `COc1ccc(S(=O)(=O)N2CCCc3ccc(C(F)(F)F)cc32)cc1N1CCNCC1` [Compound 29, 1-(4-Methoxy-3-piperizin-1-ylbenzenesulfonyl)-7-trifluoromethyl-1,2,3,4-tetrahydroquinoline hydrochloride], for which the Ki under setting [1] is less than 3.16 nM. The selectivity under setting [2] is more than 100.

Regarding `COc1ccc(S(=O)(=O)Nc2ccccc2OC(F)(F)F)cc1N1CCN(C)CC1.Cl` [Compound 32, N-(2-Trifluoromethoxyphenyl)-4-methoxy-3-(4-methylpiperazin-1-yl)-benzenesulfonamide hydrochloride], the Ki under setting [1] was less than 3.16 nM. This compound returned a selectivity under setting [2] of more than 100.

On to `COc1ccc(S(=O)(=O)Nc2ccc(C)c(C)c2)cc1N1CCN(C)CC1.Cl` [Compound 41, N-(3,4-Dimethylphenyl)-4-methoxy-3-(4-methylpiperazin-1-yl)-benzenesulfonamide hydrochloride], for which the Ki under setting [1] is less than 3.16 nM. Under setting [2], this compound gave a selectivity of more than 100.

Consider `COc1ccc(S(=O)(=O)N2CCc3cccc(Cl)c3C2)cc1N1CCN(C)CC1.Cl` [Compound 44, 8-Chloro-2-[4-methoxy-3-(4-methylpiperazin-1-yl)benzenesulfonyl]-1,2,3,4-tetrahydroisoquinoline hydrochloride], for which the Ki under setting [1] is less than 3.16 nM. For the same compound, the selectivity under setting [2] is more than 100.

As for `COc1ccc(S(=O)(=O)Nc2ccc(F)cc2Cl)cc1N1CCN(C)CC1.Cl` [Compound 45, N-(2-Chloro-4-fluorophenyl)-4-methoxy-3-(4-methylpiperazin-1-yl)-benzenesulfonamide hydrochloride], the Ki under setting [1] is less than 3.16 nM. The selectivity under setting [2] was more than 100.

Take `COc1ccc(S(=O)(=O)Nc2ccccc2I)cc1N1CCN(C)CC1.Cl` [Compound 53, N-(2-Iodophenyl)-4-methoxy-3-(4-methylpiperazin-1-yl)benzenesulfonamide hydrochloride]: the Ki under setting [1] was less than 3.16 nM. Under setting [2], this compound registered a selectivity of more than 100.

As for `COc1ccc(S(=O)(=O)Nc2ccc(I)cc2Cl)cc1N1CCN(C)CC1.Cl` [Compound 54, N-(2-Chloro-4-iodophenyl)-4-methoxy-3-(4-methylpiperazin-1-yl)-benzenesulfonamide hydrochloride], the Ki under setting [1] was less than 3.16 nM. The compound also gave a selectivity under setting [2] of more than 100.

For the compound `C=Cc1ccc(NS(=O)(=O)c2ccc(OC)c(N3CCN(C)CC3)c2)cc1.Cl` [Compound 63, 4-Methoxy-3-(4-methylpiperazin-1-yl)-N-(4-vinylphenyl)benzenesulfonamide hydrochloride], the Ki under setting [1] is less than 3.16 nM. Further, the selectivity under setting [2] is more than 100.

For the compound `COc1ccc(S(=O)(=O)Nc2ccc(Br)c(C(F)(F)F)c2)cc1N1CCN(C)CC1.Cl` [Compound 67, N-(4-Bromo-3-trifluoromethylphenyl)-4-methoxy-3-(4-methylpiperazin-1-yl)-benzenesulfonamide hydrochloride], the Ki under setting [1] is less than 3.16 nM. The same compound had a selectivity under setting [2] of more than 100.

In the case of `COc1ccc(S(=O)(=O)Nc2ccc(Cl)c(C(F)(F)F)c2)cc1N1CCN(C)CC1.Cl` [Compound 69, N-(4-Chloro-3-trifluoromethylphenyl)-4-methoxy-3-(4-methylpiperazin-1-yl)-benzenesulfonamide hydrochloride], the Ki under setting [1] is less than 3.16 nM. Under setting [2], this compound came in with a selectivity of more than 100.

Consider `COc1ccc(S(=O)(=O)N2CCCc3c(Cl)cc(Cl)cc32)cc1N1CCN(C)CC1.Cl` [Compound 73, 5,7-Dichloro-1-[4-methoxy-3-(4-methylpiperazin-1-yl)benzenesulfonyl]-1,2,3,4-tetrahydroquinoline hydrochloride], for which the Ki under setting [1] was less than 3.16 nM. For the same compound, the selectivity under setting [2] is reported as more than 100.

Compound `COc1ccc(S(=O)(=O)Nc2ccccc2C(C)C)cc1N1CCNCC1.Cl` [Compound 79, N-(2-Isopropylphenyl)-4-methoxy-3-piperazin-1-yl-benzenesulfonamide hydrochloride] gave a Ki of less than 3.16 nM and a selectivity of more than 100.

Consider `COc1ccc(S(=O)(=O)Nc2ccccc2SC)cc1N1CCNCC1.Cl` [Compound 85, 4-Methoxy-N-(2-methylsulfanylphenyl)-3-piperazin-1-ylbenzenesulfonamide hydrochloride], for which, under setting [1], the Ki is less than 3.16 nM. In addition, under setting [2], the selectivity is recorded as more than 100.

For the compound `CCc1ccccc1NS(=O)(=O)c1ccc(OC)c(N2CCNCC2)c1.Cl` [Compound 88, N-(2-Ethylphenyl)-4-methoxy-3-piperazin-1-ylbenzenesulfonamide hydrochloride], the Ki under setting [1] was less than 3.16 nM. The selectivity under setting [2] is listed as more than 100.

Consider `COc1ccc(S(=O)(=O)Nc2cccc(C(F)(F)F)c2)cc1N1CCNCC1.Cl` [Compound 89, 4-Methoxy-3-piperazin-1-yl-N-(3-trifluoromethylphenyl)benzenesulfonamide hydrochloride], for which, under setting [1], the Ki was less than 3.16 nM. Under setting [2], this compound came in with a selectivity of more than 100.

Take `COc1ccc(S(=O)(=O)Nc2ccccc2Br)cc1N1CCNCC1.Cl` [Compound 91, N-(2-Bromophenyl)-4-methoxy-3-piperazin-1-ylbenzenesulfonamide hydrochloride]: the Ki is less than 3.16 nM and the selectivity was more than 100.

For the compound `COc1ccc(S(=O)(=O)Nc2cc(Br)ccc2Br)cc1N1CCNCC1.Cl` [Compound 100, N-(2,5-Dibromophenyl)-4-methoxy-3-piperazin-1-ylbenzenesulfonamide hydrochloride], the Ki under setting [1] is less than 3.16 nM. Further, the selectivity under setting [2] is more than 100.

For `C=C(C)c1ccccc1NS(=O)(=O)c1ccc(OC)c(N2CCNCC2)c1.Cl` [Compound 104, N-(2-Isopropenylphenyl)-4-methoxy-3-piperazin-1-ylbenzenesulfonamide hydrochloride], the Ki under setting [1] was less than 3.16 nM. The selectivity under setting [2] is more than 100.

For `COc1ccc(S(=O)(=O)Nc2ccc(C(C)(C)C)cc2)cc1N1CCNCC1.Cl` [Compound 107, N-(4-tert-Butylphenyl)-4-methoxy-3-piperazin-1-ylbenzenesulfonamide hydrochloride], the Ki under setting [1] was less than 3.16 nM. Further, the selectivity under setting [2] is reported as more than 100.

Take `COc1ccc(S(=O)(=O)Nc2ccccc2-c2ccccc2)cc1N1CCNCC1.Cl` [Compound 113, N-Biphenyl-2-yl-4-methoxy-3-piperazin-1-ylbenzenesulfonamide hydrochloride]: under setting [1], the Ki is less than 3.16 nM. Under setting [2], this compound registered a selectivity of more than 100.

As for `COc1ccc(S(=O)(=O)Nc2cc(Cl)c(Cl)cc2Cl)cc1N1CCNCC1.Cl` [Compound 131, N-(2,4,5-Trichlorophenyl)-4-methoxy-3-piperazin-1-ylbenzenesulfonamide hydrochloride], the Ki under setting [1] was less than 3.16 nM. The selectivity under setting [2] is recorded as more than 100.

With `COc1ccc(Cl)cc1NS(=O)(=O)c1ccc(OC)c(N2CCNCC2)c1.Cl` [Compound 132, N-(5-Chloro-2-methoxyphenyl)-4-methoxy-3-piperazin-1-ylbenzenesulfonamide hydrochloride], the Ki under setting [1] is less than 3.16 nM. Besides, under setting [2], the selectivity is on record as more than 100.

Take `COc1ccc(S(=O)(=O)N2CCCc3ccc(Br)cc32)cc1N1CCNCC1.Cl` [Compound 145, 7-Bromo-1-(4-methoxy-3-piperazin-1-ylbenzenesulfonyl)-1,2,3,4-tetrahydroquinoline hydrochloride]: the selectivity is more than 100. Moreover, the Ki (read-out: pKi (converted)) is less than 3.16 nM.
